Test results taken from patent publication US9481688B2, “(Thieno[2,3-b][1,5]benzoxazepin-4-yl)piperazin-1-yl compounds as dual activity H1 inverse agonists/5-HT2A antagonists” (Eli Lilly and Company, priority 2011, dated 2016).
Counter-ions that a name gives are not always drawn.

Tests used:
Adrenergic alpha1B = Adrenergic alpha1B (Homo sapiens (Human), UniProt P35368); test: Adrenergic alpha1B binding
Source text: (§1) Further, the compounds of the invention may be tested in binding assays and functional activity assays by well known methods for other physiologically important receptors such as, but not limited to, the hERG channel, other serotonin receptors (specifically 5-HT1B, 5-HT1D, receptors, lack of agonist activity at 5-HT2B receptors, 5-HT2C, 5-HT5, 5-HT6, and 5-HT7 receptors), dopaminergic receptors (specifically D1, D2, and D3), GABAA receptors, adrenergic receptors and monoamine transporters.

5-HT6 = 5-HT6 (Homo sapiens (Human), UniProt P50406); test: 5-HT6 binding
Sequence of 5-HT6 (P50406 whole entry, species assumed): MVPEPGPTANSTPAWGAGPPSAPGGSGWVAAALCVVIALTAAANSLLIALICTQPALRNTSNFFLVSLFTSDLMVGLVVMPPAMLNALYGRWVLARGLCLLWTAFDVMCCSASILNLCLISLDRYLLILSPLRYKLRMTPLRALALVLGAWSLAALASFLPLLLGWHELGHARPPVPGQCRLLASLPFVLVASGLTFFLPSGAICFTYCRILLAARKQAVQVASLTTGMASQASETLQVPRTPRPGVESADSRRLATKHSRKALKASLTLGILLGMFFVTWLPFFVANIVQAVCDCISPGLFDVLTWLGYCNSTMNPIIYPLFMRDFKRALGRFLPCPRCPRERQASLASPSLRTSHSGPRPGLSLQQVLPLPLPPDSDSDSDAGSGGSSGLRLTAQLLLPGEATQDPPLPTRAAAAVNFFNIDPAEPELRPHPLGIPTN
Source text: as §1

Adrenergic alpha2B = Adrenergic alpha2B (Homo sapiens (Human), UniProt P18089); test: Adrenergic alpha2B binding
Sequence of Adrenergic alpha2B (P18089 whole entry): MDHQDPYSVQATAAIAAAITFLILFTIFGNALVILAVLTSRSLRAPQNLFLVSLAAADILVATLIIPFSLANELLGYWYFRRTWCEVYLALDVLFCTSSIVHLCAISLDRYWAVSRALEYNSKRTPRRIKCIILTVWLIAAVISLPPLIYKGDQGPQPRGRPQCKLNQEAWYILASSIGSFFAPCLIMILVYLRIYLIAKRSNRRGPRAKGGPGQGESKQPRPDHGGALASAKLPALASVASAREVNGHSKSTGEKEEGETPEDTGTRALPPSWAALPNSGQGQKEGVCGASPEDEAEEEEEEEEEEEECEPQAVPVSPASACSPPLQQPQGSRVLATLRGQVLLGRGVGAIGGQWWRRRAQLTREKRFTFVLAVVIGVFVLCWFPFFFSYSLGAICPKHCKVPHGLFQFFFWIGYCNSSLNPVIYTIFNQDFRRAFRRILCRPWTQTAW
Source text: as §1

5-HT1D = 5-HT1D (Homo sapiens (Human), UniProt P28221); test: 5-HT1D binding
Sequence of 5-HT1D (P28221 whole entry, species assumed): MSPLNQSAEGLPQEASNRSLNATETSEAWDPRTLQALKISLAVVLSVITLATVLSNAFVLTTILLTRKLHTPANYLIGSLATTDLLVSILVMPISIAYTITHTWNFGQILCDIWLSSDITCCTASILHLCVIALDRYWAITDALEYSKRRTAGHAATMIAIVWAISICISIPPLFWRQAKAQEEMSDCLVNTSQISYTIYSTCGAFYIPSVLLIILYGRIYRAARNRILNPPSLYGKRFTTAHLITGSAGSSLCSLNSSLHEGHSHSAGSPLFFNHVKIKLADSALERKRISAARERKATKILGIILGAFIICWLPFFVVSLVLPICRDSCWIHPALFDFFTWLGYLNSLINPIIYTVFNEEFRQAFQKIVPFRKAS
Source text: as §1

Dopamine D1 = Dopamine D1 (Homo sapiens (Human), UniProt P21728); test: Dopamine D1 binding
Sequence of Dopamine D1 (P21728 whole entry): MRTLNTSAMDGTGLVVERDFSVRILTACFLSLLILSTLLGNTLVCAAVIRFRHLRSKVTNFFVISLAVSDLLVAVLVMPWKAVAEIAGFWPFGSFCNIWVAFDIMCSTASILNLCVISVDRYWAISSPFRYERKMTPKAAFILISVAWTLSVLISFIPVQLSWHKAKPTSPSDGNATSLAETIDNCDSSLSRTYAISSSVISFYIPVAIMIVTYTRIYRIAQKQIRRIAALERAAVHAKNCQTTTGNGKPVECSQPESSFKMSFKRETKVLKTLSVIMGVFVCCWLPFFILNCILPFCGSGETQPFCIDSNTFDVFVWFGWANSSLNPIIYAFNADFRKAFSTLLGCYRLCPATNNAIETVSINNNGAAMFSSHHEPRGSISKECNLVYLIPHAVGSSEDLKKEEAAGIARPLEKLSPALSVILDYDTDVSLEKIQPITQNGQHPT
Source text: as §1

[1] = Plasma clearance in dog (intravenous); format: in vivo; conditions: male, Beagle, 1 mg/kg
Method: Male Beagle dogs (body weight range 10-12 kg) are obtained from Marshall Bioresources, USA. Test compound is administered intravenously in solution (1 mL/kg) in 20% Captisol® in 22.5 mM phosphate buffer, pH 2, at a final drug concentration of 1.0 mg/mL (free base equivalents). Blood samples are obtained from the jugular vein over 24 hr. Samples of plasma are obtained by centrifugation and stored frozen (−20° C.) prior to analysis.
Frozen plasma samples are thawed to room temperature for bioanalysis of concentrations of test compound. A related internal standard compound in acetonitrile/methanol (1:1, v/v) is added to all samples of plasma (1:1, v/v). The samples are centrifuged to remove precipitated protein prior to analysis. The supernatants are analysed by injection and rapid gradient elution on a Javelin Betasil C18 column (20×2.1 mm cartridge, Mobile phase A: Water/1 M NH4HCO3, 2000:10 v/v, Mobile Phase B: MeOH/1 M NH4HCO3, 2000:10 v/v). The eluted analytes are detected by LC-MS-MS analysis using a Sciex API 4000 triple quadrupole mass spectrometer. Concentrations of compound are determined from standards prepared and analysed under identical conditions. Clearance is calculated using non-compartmental analysis in Watson 7.4, Thermo Fisher Scientific, Inc.

[2] = molecular target: recombinant 5-HT2A receptor (human) (Homo sapiens (Human), UniProt P28223); test: 5-HT2A competition binding assay ([3H]-Ketanserin, SPA); conditions: dihydrochloride
Method: [^3H]-Ketanserin binding experiments are carried out in SPA 96-well format. Membranes used in this assay are prepared from AV-12 cells stably expressing recombinant 5-HT2A receptor (human). The incubation is initiated by the addition of a mixture of WGA YSi SPA beads (1 mg/well, Perkin Elmer (MA, USA), RPNQ0011) and 2 μg membranes to assay buffer (67 mM Tris, 0.5 mM EDTA; pH 7.6) containing 3.1 nM [^3H]-Ketanserin and varying concentrations of the test compound (10 point concentration response curves). Non-specific binding is determined in the presence of 20 μM 1-(1-Naphthyl) piperazine. Samples are incubated for 4 hr. at room temperature (22° C.) and then read in a Microbeta Trilux.

5-HT2B = 5-HT2B (Homo sapiens (Human), UniProt P41595); test: 5-HT2B agonist functional activity; format: biochemical
Sequence of 5-HT2B (P41595 whole entry, species assumed): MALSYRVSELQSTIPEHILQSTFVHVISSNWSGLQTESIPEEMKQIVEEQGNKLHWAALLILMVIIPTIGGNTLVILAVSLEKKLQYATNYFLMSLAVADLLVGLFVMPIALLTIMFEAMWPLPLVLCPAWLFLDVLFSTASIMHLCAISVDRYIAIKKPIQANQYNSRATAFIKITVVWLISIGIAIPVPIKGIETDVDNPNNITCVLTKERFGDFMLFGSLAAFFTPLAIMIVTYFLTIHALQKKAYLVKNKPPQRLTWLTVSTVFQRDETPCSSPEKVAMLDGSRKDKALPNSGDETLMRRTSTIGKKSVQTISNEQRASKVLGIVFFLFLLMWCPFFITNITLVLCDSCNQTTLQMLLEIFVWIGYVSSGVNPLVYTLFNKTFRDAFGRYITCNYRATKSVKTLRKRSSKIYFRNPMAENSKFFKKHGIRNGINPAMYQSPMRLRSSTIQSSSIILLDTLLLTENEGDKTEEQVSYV
Source text: as §1

5-HT7 = 5-HT7 (Homo sapiens (Human), UniProt P34969); test: 5-HT7 binding
Sequence of 5-HT7 (P34969 whole entry, species assumed): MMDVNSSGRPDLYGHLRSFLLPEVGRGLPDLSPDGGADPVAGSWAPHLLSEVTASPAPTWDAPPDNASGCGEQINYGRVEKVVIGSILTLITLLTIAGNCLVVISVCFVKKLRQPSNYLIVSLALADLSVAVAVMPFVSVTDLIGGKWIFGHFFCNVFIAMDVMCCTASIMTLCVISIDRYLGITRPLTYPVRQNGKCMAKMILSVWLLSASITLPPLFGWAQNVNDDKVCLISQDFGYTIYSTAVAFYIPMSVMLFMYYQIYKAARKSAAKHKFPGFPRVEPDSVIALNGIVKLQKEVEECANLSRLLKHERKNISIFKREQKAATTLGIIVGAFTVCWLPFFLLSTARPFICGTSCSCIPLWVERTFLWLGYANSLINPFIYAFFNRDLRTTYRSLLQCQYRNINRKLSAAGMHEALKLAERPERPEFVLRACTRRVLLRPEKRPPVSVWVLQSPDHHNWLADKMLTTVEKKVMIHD
Source text: as §1

[3] = molecular target: human recombinant H1 receptor (Homo sapiens (Human), UniProt P35367); test: H1 competition binding assay ([3H]-Pyrilamine, SPA); conditions: dihydrochloride
Sequence of human recombinant H1 receptor (P35367 whole entry): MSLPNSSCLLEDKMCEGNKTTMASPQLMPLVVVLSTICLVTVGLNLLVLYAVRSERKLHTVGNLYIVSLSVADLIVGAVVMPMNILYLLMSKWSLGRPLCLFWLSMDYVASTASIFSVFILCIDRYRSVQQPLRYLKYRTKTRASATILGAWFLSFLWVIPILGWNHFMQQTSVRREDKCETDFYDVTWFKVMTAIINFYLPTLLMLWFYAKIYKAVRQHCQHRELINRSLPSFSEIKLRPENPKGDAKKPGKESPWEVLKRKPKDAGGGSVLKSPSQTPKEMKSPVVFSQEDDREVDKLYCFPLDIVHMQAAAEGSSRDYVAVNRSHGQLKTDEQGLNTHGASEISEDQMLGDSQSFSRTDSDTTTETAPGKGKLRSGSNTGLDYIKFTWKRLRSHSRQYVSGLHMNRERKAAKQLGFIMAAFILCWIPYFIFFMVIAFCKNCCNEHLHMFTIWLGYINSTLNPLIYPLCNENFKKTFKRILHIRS
Method: [^3H]-Pyrilamine binding experiments are carried out in SPA (scintillation proximity assay) 96-well format. Membranes used in this assay are prepared from HEK-293 cells stably expressing recombinant H1 receptor (human). The incubation is initiated by the addition of a mixture of WGA PVT SPA beads (1 mg/well, Perkin Elmer (MA, USA) RPNQ0001) and 3 μg membranes to assay buffer (67 mM Tris; pH 7.6) containing 3.5 nM [^3H]-Pyrilamine and varying concentrations of the test compound (10 point concentration response curves). Non-specific binding is determined in the presence of 10 μM Triprolidine. Samples are incubated for 4 hr. at room temperature (22° C.) and then read in a Microbeta Trilux.
Curves are evaluated using a 4-parameter logistic nonlinear equation to obtain the concentration of competitor causing 50% inhibition of radioligand binding (IC50). Equilibrium dissociation constants (Ki) are calculated according to the equation Ki=IC50/(1+L/Kd), where L equals the concentration of radioligand used in the experiment and Kd equals the equilibrium dissociation constant of the radioligand for the receptor, determined from standard saturation analysis or homologous competition experiments. Reported values for Ki, where n values are indicated, are shown as geometric mean±the standard error of the mean (SEM), with the number of replicate determinations indicated by n. […]

Dopamine D2 = Dopamine D2 (Homo sapiens (Human), UniProt P14416); test: Dopamine D2 binding; conditions: dihydrochloride
Sequence of Dopamine D2 (P14416 whole entry): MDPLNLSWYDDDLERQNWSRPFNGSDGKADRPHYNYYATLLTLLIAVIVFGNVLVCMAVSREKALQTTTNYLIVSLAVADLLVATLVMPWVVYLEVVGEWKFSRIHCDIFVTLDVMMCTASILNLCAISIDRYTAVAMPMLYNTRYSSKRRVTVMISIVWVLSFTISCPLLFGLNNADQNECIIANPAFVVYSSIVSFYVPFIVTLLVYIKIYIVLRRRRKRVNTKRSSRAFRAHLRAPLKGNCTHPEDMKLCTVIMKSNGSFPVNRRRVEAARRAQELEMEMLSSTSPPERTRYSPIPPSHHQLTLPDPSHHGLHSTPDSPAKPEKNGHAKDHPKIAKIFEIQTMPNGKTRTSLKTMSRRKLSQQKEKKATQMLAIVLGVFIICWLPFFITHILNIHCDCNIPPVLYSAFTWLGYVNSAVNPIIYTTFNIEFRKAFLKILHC
Source text: as §1

Adrenergic alpha2A = Adrenergic alpha2A (Homo sapiens (Human), UniProt P08913); test: Adrenergic alpha2A binding
Sequence of Adrenergic alpha2A (P08913 whole entry): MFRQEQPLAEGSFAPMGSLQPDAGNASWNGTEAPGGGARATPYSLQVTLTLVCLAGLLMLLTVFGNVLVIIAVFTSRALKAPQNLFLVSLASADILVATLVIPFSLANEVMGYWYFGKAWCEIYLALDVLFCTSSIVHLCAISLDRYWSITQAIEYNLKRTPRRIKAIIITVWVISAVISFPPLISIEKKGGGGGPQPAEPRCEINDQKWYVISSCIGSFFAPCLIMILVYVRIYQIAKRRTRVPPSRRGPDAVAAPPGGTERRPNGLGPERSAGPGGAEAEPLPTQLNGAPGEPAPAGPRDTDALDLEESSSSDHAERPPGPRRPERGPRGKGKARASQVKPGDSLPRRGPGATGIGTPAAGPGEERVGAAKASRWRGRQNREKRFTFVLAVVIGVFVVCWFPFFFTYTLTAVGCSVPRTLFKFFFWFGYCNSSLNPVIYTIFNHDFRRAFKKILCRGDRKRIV
Source text: as §1

5-HT5 = 5-HT5 (Homo sapiens (Human), UniProt P47898); test: 5-HT5 binding
Sequence of 5-HT5 (P47898 whole entry, species assumed): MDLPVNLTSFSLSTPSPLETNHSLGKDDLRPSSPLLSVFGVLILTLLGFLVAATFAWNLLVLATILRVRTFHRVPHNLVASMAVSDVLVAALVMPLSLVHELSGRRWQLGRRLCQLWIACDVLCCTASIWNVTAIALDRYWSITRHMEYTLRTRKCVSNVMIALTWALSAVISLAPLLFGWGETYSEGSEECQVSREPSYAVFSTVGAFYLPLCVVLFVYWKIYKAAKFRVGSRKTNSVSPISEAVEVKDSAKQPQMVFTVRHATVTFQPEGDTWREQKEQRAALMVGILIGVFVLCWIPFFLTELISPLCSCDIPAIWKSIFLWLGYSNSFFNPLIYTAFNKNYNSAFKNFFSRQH
Source text: as §1

native GABAA receptors = test: GABAA antagonism using native receptors in primary neuronal cultures (FLIPR calcium flux); format: cell-based, rat; conditions: against 10 μM GABA
Method: Activity of compounds on native GABAA receptors is evaluated by monitoring calcium fluxes using a 96 well format FLIPR® system (Fluorometric Imaging Plate Reader (FLIPR®, Molecular Devices). Briefly, cortical embryonic neurons are dissociated from E18 rat embryos and plated at optimum density into black-walled, transparent bottom poly-D-lysine coated 96-well FLIPR® plates. After loading the cells with a calcium sensitive dye (Fluo4-AM, Molecular Devices), the cells are bathed in a solution containing low chloride (chloride replaced by gluconate). Under these conditions activation of GABAA receptors causes an efflux of chloride ions (in the direction of the chemical gradient), which results in membrane depolarization and consequently activation of voltage gated calcium channels (VGCCs). Calcium influx through VGCCs is recorded and analysed offline using the FLIPR® system. For a pharmacological validation of the assay, concentration response curves (CRC) are recorded for the standard agonist (GABA) and standard antagonist (Gabazine). […]
The antagonist effects of compounds are quantified using 10-point dose response curves by comparing the peak fluorescent responses to the agonist GABA in the presence and absence of compound. […] Antagonist effects are calculated as a percent of the assay window. […]

Sequence of Adrenergic alpha1B (P35368 whole entry): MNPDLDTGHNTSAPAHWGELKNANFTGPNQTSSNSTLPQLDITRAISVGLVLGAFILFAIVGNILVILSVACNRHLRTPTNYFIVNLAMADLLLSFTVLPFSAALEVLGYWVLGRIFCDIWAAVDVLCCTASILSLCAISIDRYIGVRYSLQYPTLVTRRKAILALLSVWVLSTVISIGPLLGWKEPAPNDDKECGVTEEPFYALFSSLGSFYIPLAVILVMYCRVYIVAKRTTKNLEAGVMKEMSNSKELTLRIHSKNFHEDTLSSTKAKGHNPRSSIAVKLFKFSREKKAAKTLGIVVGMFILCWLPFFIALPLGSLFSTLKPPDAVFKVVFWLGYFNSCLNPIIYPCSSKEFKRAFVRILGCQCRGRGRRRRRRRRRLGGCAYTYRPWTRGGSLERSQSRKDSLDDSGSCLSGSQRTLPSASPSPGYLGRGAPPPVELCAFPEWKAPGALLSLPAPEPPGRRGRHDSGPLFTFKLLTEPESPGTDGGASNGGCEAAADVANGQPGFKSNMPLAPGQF

For `Cc1ccc2c(c1)Oc1sc(Cl)cc1C(N1CCN(CC(C)(C)C(=O)O)CC1)=N2` [Example 3, 3-[4-(2-chloro-8-methyl-thieno[2,3-b][1,5]benzoxazepin-4-yl)piperazin-1-yl]-2,2-dimethyl-propanoic acid dihydrochloride], the Ki (Adrenergic alpha1B) was greater than 14.7 µM, the Ki (5-HT6) was greater than 5.83 µM and the Ki (Adrenergic alpha2B) was greater than 5.76 µM. For the same molecule, the Ki (5-HT1D) was greater than 3.98 µM, the Ki (Dopamine D1) was 0.592 µM and the clearance [1] was 3.2 mL/min/kg. For the same molecule, the Ki [2] was 0.00701 µM, the EC50 (5-HT2B) was greater than 10 µM and the Ki (5-HT7) was greater than 2.06 µM. For the same molecule, the Ki [3] was 0.0588 µM, the Ki (Dopamine D2) was greater than 4.57 µM and the Ki (Adrenergic alpha2A) was greater than 8.99 µM. The Ki (5-HT5) was greater than 8.81 µM and the IC50 (native GABAA receptors) was greater than 100 µM.
